# Measured values published in patent US20160050895A1, “TRANSGENIC NON-HUMAN ORGANISMS WITH NON-FUNCTIONAL TSPO GENES” (AUSTRALIAN NUCLEAR SCIENCE AND TECHNOLOGY ORGANIZATION, priority 2013, published 2016).
# How the values were obtained:
# TSPO [1] = molecular target: T1, TSPO (Mus musculus, UniProt P50637); assay: Receptor film autoradiography of tissue sections with [3H]PK11195 and [125I]CLINDE; type: binding; parameters: Snap-frozen tissues were sectioned at 20 μm in a cryostat; from tissue; host or cells: mouse organ sections (brain, retina/eye, heart, adrenal, kidney, testis, spleen), C57BL/6 background; details: 10 μM unlabelled ligand; tissue sections from TSPO+/+ and TSPO+/- mice
# Method: Snap-frozen tissues were sectioned at 20 μm in a cryostat, thaw mounted on poly-L-lysine-coated slides and stored at −80° C. until day of experiment. On the day of the experiment, slides were thawed at room temperature and air dried with a cool stream of air. Total and non-specific binding were determined by incubation with 1 nM of 3H-PK11195 with or without the presence of 3 μM of PK11195 in 130 mM TRIS-HCl buffer (pH 7.4) at room temperature for 20 minutes. Following incubation, the slides were briefly dipped twice in 130 mM TRIS-HCl buffer, washed twice for 5 minutes in fresh 130 mM TRIS-HCl at room temperature. The slides were finally briefly rinsed 3 times in chilled distilled H2O, dried under a cool stream of air and allowed to air dried overnight. Sections were exposed to Kodak BioMax MR film along with tritium microscales with known activity concentrations in X-ray film cassettes. Films were developed after 33 days and digitized using a GS800 Calibrated Densitometer (Bio-Rad, Hercules, Calif., USA). Images were analysed with Quantity One imaging analysis program (Bio-Rad, Hercules, Calif. USA); to assess the level of 3H-PK11195 binding, regions of interest were drawn over the tissue and an average optical density/mm^2 was calculated. Data obtained from an individual film, subject to interfilm variations, were normalized against other films through the optical density oftritium microscales.
# The organs including brain, retina, heart, kidney and testes used for film autoradiography were dissected from wild-type (TSPO^+/+), heterozygous (TSPO^+/−), and homozygous (TSPO^−/−) mice and snap-frozen in liquid nitrogen. Cryostat organ sections at 18 μm were placed onto superfrost slides (Menzel-Glaser, Braunschweig, Germany) and stored in the dark at −20° C. for no longer than 1 week before the experiment. […] Tritium standards (Amersham Biosciences, Uppsala, Sweden) co-exposed with the organ sections on each Hyperfilm-^3H (Kodak Film) at 4° C. for 60 days, were used to quantify the autoradiographically measured binding. The hyperfilm was developed using Kodak GBX developer and fixer (Sigma Aldrich, St. Louis, Mo., U.S.A.). The hyperfilm was air-dried overnight before being scanned using the ArtixScan 1800f flatbed scanner (Microtek, Hsinchu, Taiwan), with greyscale using a magnification of 400% and an optical resolution of 2400 pixels per inch. No pre-scanning manipulation or filter was applied.
# (§1) Tissue sections from TSPO^+/+, TSPO^+/− and TSPO^−/− mice were incubated at room temperature for 20 min in 170 mM Tris-HCl pH 7.4 containing 1 nM [^3H]PK11195 (specific activity 84 Ci/mmol; Perkin Elmer, Waltham, Mass., USA), washed twice for 5 min in 170 mM Tris-HCl, rinsed with 3 dips in ice-cold MilliQ H2O, and dried. […] Displacement binding was carried out in the presence of PK11195 (10 μM), CLINDE (10 μM) and PBR-11 (10 μM).
# TSPO [2] = assay: Radioligand membrane saturation binding with 3H-PK11195; parameters: species or system mouse; details: renal tissue samples; TSPO knock-out mice
# Method: Tissue samples were homogenised with T25 digital Ultra-Turrax homogenizer (Ika, Wilmington, N.C., USA) at speed setting 5 or 20000 rpm in approximately 45 mL of ice-cold TRIS buffer (pH 7.4), collected by centrifugation at 48000 g and the supernatant was then discarded. The procedure was then immediately repeated, this acts as an extra wash step to remove any soluble interfering substances to radioligand binding (Byland et al. 1993). Following the second centrifugation and removal ofsupernatant the samples were resuspended in approximately 50 volumes of ice-cold TRIS buffer (pH 7.4). Samples were aliquoted stored in −80° C. until required.
# For TSPO knock-out mice studies, radioligand binding was performed using 3H-PK11195 racemate across a range of concentrations (FIG. 4). PK11195 is a TSPO specific probe. Total and non-specific binding was determined through 8 concentrations of 3H-PK11195 ranging from 0.56 nM to 20 nM. Non-specific binding was determined by the addition of 5 μM PK11195 to all concentrations of 3H-PK11195. […]
# Organs were homogenised, washed twice in ice-cold 50 mM Tris-HCl (pH 7.4) by centrifugation at 48000×g, resuspended in 50 volumes of ice-cold 50 mM Tris-HCl, and protein concentration was determined using a BCA protein assay kit (Thermo Fisher Scientific). […] Non-specific binding was determined with 5 μM PK11195. […]
# TSPO [3] = assay: Film autoradiography of brain sections after facial nerve axotomy; type: binding, mouse; details: homozygous (TSPO-/-) mice
# Text: Procedures for facial nerve axotomy were approved by the animal ethics committee at the University of Sydney. Animals were anaesthetised using Isoflurane anaesthesia. Animals were monitored for a combination of respiration, heart rate, oxygen saturation and temperature during procedures using a variety of monitoring equipment to ensure anaesthetic depth. The surgical process commenced when foot-pad or plantar reflex could no longer be elicited. The fur on the ipsilateral (right) side of the neck was shaved from the ear downwards, and the skin cleaned using 70% ethanol. A small incision (0.5-0.7 cm in length) overlying the musculature covering the stylomastoid foramen was made. The facial nerve was identified, isolated and then transected completely. The skin of incision was closed with heal-glue. […] The animals were euthanized with CO2 3 days after the axotomy and brain tissue, including facial nerve nuclei in the brain stem and cerebellum, was immediately dissected, snap-frozen in liquid nitrogen, and then stored in −80° C. freezer until the cryostat section.
# A small incision (0.5-0.7 cm) in the skin 0.5 cm dorsal and lateral to the ear was made and the facial nerve transected under an operating microscope. The incision was closed with 3M™ Vetbond™ Tissue Adhesive (St. Paul, Minn., USA). […] Mice were monitored carefully and euthanized with CO2 three days after the operation. Brains were dissected, placed in OCT, transferred to liquid nitrogen, and stored at −80° C. until cryo-sectioning.
# as §1
# TSPO [4] = assay: In vivo PET/CT imaging with [18F]PBR111; parameters: species or system mouse
# Method: (§2) PET scans of test mice were performed using a small-animal Inveon PET/CT scanner (Siemens, Knoxville, Tenn., USA). Before scanning, the mice were anesthetized with 5% (v/v) isoflurane and positioned in the PET/CT scanner. The isoflurane level was maintained 1-2% thereafter. The body temperature was maintained with a feedback regulated heating pad and physiologic parameters (respiration and body temperature) were monitored (BioVet; m2m Imaging Corp.) for the entire scanning period. Lacri-lube (Allergan) was placed in the mouse's eyes to prevent drying while the mouse was anesthetized. The PET scans commenced simultaneously with the tail vein injection of [^18F]PBR111 (8-18 MBq/100 μL, 0.2 nmol). After 40 min of imaging, PBR111 (1 mg/kg in 2% acetic acid-saline) was injected via tail vein to determine the non-specific accumulation in organs and imaged for further 10 minutes. Upon completion of PET scanning, mice were CT scanned for 10 minutes for anatomical information. At the end of the study the mice were euthanized immediately after imaging by cervical dislocation while the animal was still fully anaesthetised.
# (§3) Mice, anaesthetised (5% (v/v) isoflurane and maintained at 1-2%, were scanned using a small-animal Invcon PET/CT scanner (Siemens, Knoxville, Tenn., USA) according to methods described previously (Disselhorst, J. A. et al. Image-quality assessment for several positron emitters using the NEMA NU 4-2008 standards in the Siemens Inveon small-animal PET scanner. J Nucl Med 51, 610-617, doi:10.2967/jnumed.109.068858 (2010); Mattner, F. et al. Central nervous system expression and PET imaging of the translocator protein in relapsing-remitting experimental autoimmune encephalomyelitis. J Nucl Med 54, 291-298, doi: 10.2967/jnumed.112.108894 (2013)). Body temperature was maintained with a feedback regulated heating pad and respiration monitored (BioVet; m2m Imaging Corp, Cleveland, Ohio, USA). Scans started with the tail vein injection of [^18F]PBR111 (8-18 MBq/100 μL, […]). After 40 min of imaging, PBR111 (1 mg/kg in 2% acetic acid-saline) was injected to determine non-specific accumulation in organs and imaged for 10 minutes. Then, mice underwent a 10-min CT-scan for anatomical information. All PET data were corrected, normalised and reconstructed with an OSEM3D-MAP algorithm to produced PET volumes of activity concentration (kBq/ml).
# TSPO [5] = molecular target: T1, TSPO; assay: In vivo PET/CT imaging with [18F]PBR111; parameters: from tissue; host or cells: organs of living mice (adrenal gland, kidney, heart, liver, lung, brain)
# Method: as §2, §3
compound,measurement,setting,value
CCN(CC)C(=O)Cc1c(-c2ccc(I)cc2)nc2ccc(Cl)cn12 [CLINDE],competitive binding: displacement of specific binding of [125I]CLINDE and [3H]PK11195 by unlabelled ligand,TSPO [1],displaced
"CC[C@@H](C)N(C)C(=O)c1cc2ccccc2c(-c2ccccc2Cl)n1 [PK11195, 1-(2-chlorophenyl)-N-methyl-N-(1-r-methylpropyl)-3-isoquinolinecarboxamide]",binding of the TSPO-selective probe PK11195,TSPO [2],no binding
same,intensity of PK11195 binding in the cerebellum,TSPO [3],the same as the surrounding background
same,competitive binding: displacement of specific binding of [125I]CLINDE and [3H]PK11195 by unlabelled ligand,TSPO [1],displaced
CCN(CC)C(=O)Cc1c(-c2ccc(OCCC[18F])cc2)nc2ccc(Cl)cn12 [[^18F]PBR111],radiotracer observed in PET images,"TSPO [4]; TSPO knock-out (homozygous, TSPO-/-) mouse",none
same,ligand binding in PET/CT images,TSPO [4]; TSPO-/- mice,no ligand binding
same,specific binding from radioligand kinetics and displacement with cold PBR111,"TSPO [4]; TSPO-/- mice, any organs, cold PBR111 (1 mg/kg)",do not have specific binding
same,time course of radiotracer uptake,"TSPO [4]; adrenal gland, kidney, liver and heart, TSPO knock-out mice (TSPO-/-)",rapidly reaches the peak and then declines to the non-specific level
same,distribution of ligand binding in PET/CT images,TSPO [5]; TSPO+/+ and TSPO+/- mice,"in organs with known high TSPO expression, notably kidney and adrenal gland"
same,specific binding from radioligand kinetics and displacement with cold PBR111,"TSPO [5]; TSPO+/+ and TSPO+/- mice, cold PBR111 (1 mg/kg)",indicates specific binding
same,time course of radiotracer uptake,"TSPO [5]; adrenal gland, kidney and liver, wild-type mice (TSPO+/+), until PBR111 at 40 min","slowly increases, but maintains a peak level"
same,selectivity for TSPO,"TSPO [5]; in vivo, validated against TSPO-/- null background",high selectivity
same,intensity of radiotracer in PET images,TSPO [5]; wild-type mouse (TSPO+/+),high intensity
PBR-111,competitive binding: displacement of specific binding of [125I]CLINDE and [3H]PK11195 by unlabelled ligand,TSPO [1],displaced
